Key:
[1] = Antiproliferative activity of the compound of Formula VI (test not specified); format: cell-based; settings: present invention
From the text: The preparation of the compound of Formula VI was previously reported (Wang, Q. PhD Thesis, 2000, Johns Hopkins University). The ability of the compound of Formula VI to selectively modulate CYP24 activity has not been reported. […] Accordingly, the present invention is the first to find that the compound of Formula VI is useful in the methods of the invention.

CYP24 = molecular target: T1, CYP24 (Homo sapiens, UniProt Q07973); assay: In vitro test for selective inhibition of CYP24 (standard protocol, ketoconazole control); format: biochemical; settings: in comparison to CYP27A1 and CYP27B1
T1 sequence (Q07973 36-514): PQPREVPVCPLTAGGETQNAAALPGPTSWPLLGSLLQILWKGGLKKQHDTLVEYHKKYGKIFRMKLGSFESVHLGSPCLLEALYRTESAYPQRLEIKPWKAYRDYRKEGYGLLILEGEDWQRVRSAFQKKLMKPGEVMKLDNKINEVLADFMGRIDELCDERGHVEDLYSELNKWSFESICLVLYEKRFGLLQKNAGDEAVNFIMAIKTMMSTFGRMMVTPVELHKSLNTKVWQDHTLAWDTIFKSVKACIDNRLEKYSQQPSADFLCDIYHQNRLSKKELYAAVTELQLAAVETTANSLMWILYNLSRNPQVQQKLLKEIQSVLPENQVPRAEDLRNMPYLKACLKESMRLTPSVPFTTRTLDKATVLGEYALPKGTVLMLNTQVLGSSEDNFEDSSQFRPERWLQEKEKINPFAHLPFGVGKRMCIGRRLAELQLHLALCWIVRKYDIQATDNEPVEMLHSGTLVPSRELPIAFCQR
Protocol: Selectively inhibiting the cytochrome P450 enzymatic pathway, through which 1α,25-dihydroxyvitamin D3 is catabolized (mainly via C-24 hydroxylation), is one important way to prolong the lifetime of this hormone, or analogs thereof. Therefore, the compounds of Formula I were tested in vitro, using a standard protocol, for their ability to inhibit specifically CYP24, an enzyme responsible for 24-hydroxylation of 1α,25-dihydroxyvitamin D3. Antimycotic ketoconazole, a drug used clinically for chemotherapy of human prostate cancer (Trachtenberg, J. et al. J. Urol. 1984, J32, 61-63), was used as a control standard for inhibition of CYP24.

SCC-25 cells = assay: [3H]-thymidine proliferation assay with SCC-25 cells; format: cell-based; settings: together with calcitriol; 1, 10, 50 nM compound; three days
Protocol: (§1) SCC-25 cells were treated with specified concentrations of calcitriol and compound Va for three days. Cells were then incubated with [^3H]-thymidine for 6 h at 37° C. in a humidified atmosphere containing 5% CO2. Plates were harvested and radioactivity measured. Dose response curves in the absence of Va, 1 nM Va, 10 nM Va and 50 nM Va are shown.
[^3H]-thymidine Proliferation Assay with SCC-25 Cells
• 1. Preparation of cell suspension • When SCC-25 cells are 70-80% confluent, aspirate media. Wash the cells with 1×PBS. Trypsinize with trypsin-EDTA from the plate, collect cells from the tissue culture flask, centrifuged (500×g, 5 min) and resuspended in media. • 2. Cell plating. • Count the cells and adjust the cell density to 10,000/ml. Add 200 μl per well in a 96 well plate. Incubate plate for 24 h at 37° C. in a humidified atmosphere plus 5% CO2. Aspirate used media and replace with 150 μl per well with media. • 3. Compound addition. • Add 25 μl of 1α,25(OH)2D3 (final concentration 10^−6 M, 10^−7 M, 10^−8 M, 10^−9 M, 10^−10 M, 10^−11 M) into each designated well. Add 25 μL of Substrate (final concentration 10^−7 M, 5×10^−8 M, 10^−8 M or 10^−9 M) into each designated well. Incubate plates for 3 days at 37° C. in a humidified atmosphere plus 5% CO2. • 4. ^3H-Thymidine incorporation. • Add ^3H-thymidine at 0.02 μCi per well and incubate at 37° C. in a humidified atmosphere plus 5% CO2 for 6 h. • 5. Plate Harvesting. • Aspirate all media and wash cells with 1×PBS. Trypsinize cells for 30 min at 37° C. in a humidified atmosphere plus 5% CO2. Harvest cells onto a 96 well filter plate (Millipore) using a Tomtec Cell Harvestor, according to manufacturers instructions. • 6. Scintillation Counting. • Add 25 μl of scintillation fluid per well. Count the plate using a scintillation counter. Results: See FIGS. 10-13.

[2] = system: normal human epidermal keratinocytes (NHEK); assay: Human epidermal keratinocyte proliferation (HEK) assay, [3H]-thymidine; format: cell-based; settings: together with calcitriol; 1, 10, 50 nM compound; three days
Protocol: as §1, with “NHEK” for “SCC-25 cells”, “18” for “6”
Human Epidermal Keratinocyte Proliferation (HEK) Assay
• 1. HEK cell media • Supplement KGM media with additional reagents provided in the bullet kit as per supplier's instructions. • Add calcium chloride to final concentration of 0.3 mM. • 2. Calcitriol dilutions
(iii) Procedure: • 2. Cell culture • Thaw one vial of HEK cells containing at least 500 K, and divide into 5 25 cm^2 flasks with 5 ml HEK cell media. 24 h later, remove media and replenish with 5 ml fresh media. Change media again 48 h later. • 3. Preparation of cell suspension • On the day of the assay, wash the monolayer of HEK cells once with 1×PBS buffer (provided in reagent pack) and then trypsinize for 5 min at 37° C. Add trypsin neutralizing solution (provided in reagent pack). Collect cells into tube, centrifuge cells (500×g, 5 min) and resuspend in HEK cell media. Count cells and adjust density to 150,000 cells/ml. Dilute cells further 1:30 with HEK cell media. • 2. Cell plating • Add 150 μl of cell suspension to appropriately labelled wells of a 96-well plate. Incubate plate for 48 h at 37° C. in a humidified atmosphere containing 5% CO2 for adherence of cells to wells. • 3. Compound addition • Add 25 μl of calcitriol (10^−6 to 10^−11 M, final) and add 25 μl of substrate (10^−7 to 10^−10 M, final) and incubate for 32 hours at 37° C. in a humidified atmosphere containing 5% CO2. • 4. Cell harvesting and counting • Add 0.2 μCi/well of [^3H]-thymidine in 20 μl of HEK cell media to each well. Incubate plates for 18 h at 37° C. in a humidified atmosphere containing 5% CO2. Aspirate media and wash with 1×PBS. Trypsinize cells for 30 min at 37° C. in a humidified atmosphere containing 5% CO2. Harvest cells onto filter plates using Tomtec cell harvester as per manufacturer's instructions. Add 25 μl scintillation fluid per well. Measure radioactivity using a scintillation counter. All values were normalized for background. Results; See FIGS. 1-4

MCF-7 cells = assay: [3H]-thymidine proliferation assay with MCF-7 cells; format: cell-based; settings: together with calcitriol; 1, 10, 50 nM compound; three days
Protocol: as §1, with “MCF-7” for “SCC-25”
[^3H]-thymidine Proliferation Assay with MCF-7 Cells
• 1. Preparation of cell suspension • When MCF-7 cells are 70-80% confluent, aspirate growth media. Wash the cells with 1×PBS. Trypsinize with trypsin-EDTA from the plate, collect cells from the tissue culture flask, centrifuged (500×g, 5 min) and resuspended in growth media. • 2. Cell plating. • Count the cells and adjust the cell density to 25, 000/ml. Add 200 μl per well in a 96 well plate. Incubate plate for 24 h at 37° C. in a humidified atmosphere plus 5% CO2. Aspirate used media and replace with […] per well with proliferation media. • 3. Substrate addition. • Add 25 μl of 1α,25(OH)2D3 (final concentration 10^−6 M, 10^−7 M, 10^−8 M, 10^−9 M, 10^−10 M, 10^−11 M) into each designated well. Add 25 μl of Substrate (final concentration 10^−7 M, 5×10^−8 M, 10^−8 M or 10^−9 M) into each designated well. Incubate plates for 3 days at 37° C. in a humidified atmosphere plus 5% CO2. • 4. ^3H-Thymidine incorporation. • Add ^3H-thymidine at 0.02 μCi per well and incubate at 37° C. in a humidified atmosphere plus 5% CO2 for 6 h. • 5. Plate Harvesting. • Aspirate all media and wash cells with 1×PBS. Trypsinize cells for 30 min at 37° C. in a humidified atmosphere plus 5% CO2. Harvest cells onto a 96 well filter plate (Millipore) using a Tomtec Cell Harvestor, according to manufacturers instructions. • 6. Scintillation Counting. • Add 25 μt of scintillation fluid per well. Count the plate using a scintillation counter. Results: See FIGS. 5-9.

| Compound | antiproliferative activity [1] | selective inhibition of CYP24 activity (CYP24) | inhibition of SCC-25 cells ([3H]-thymidine incorporation) (SCC-25 cells) | inhibition of NHEK ([3H]-thymidine incorporation) [2] | inhibition of MCF-7 cells ([3H]-thymidine incorporation) (MCF-7 cells) |
| --- | --- | --- | --- | --- | --- |
| C=C1/C(=C\C=C2/CCCC3(C)C(C(C)CCC4(S(=O)(=O)C(C)(C)C)CC4)=CCC23)CC(O)CC1O (centres unmarked) [Formula VI] | does have antiproliferative activity | shows selective inhibition of CYP24 activity |  |  |  |
| C=C1/C(=C\C=C2/CCC[C@@]3(C)C2CC[C@@H]3[C@H](C)CCC2(S(=O)(=O)C(C)(C)C)CC2)C[C@@H](O)C[C@@H]1O (some centres unmarked) [IIa] |  |  | act to inhibit SCC-25 cells | act to inhibit normal human epidermal keratinocytes |  |
| C=C1/C(=C\C=C2/CCC[C@]3(C)C([C@H](C)CCC(C)(C)S(=O)(=O)C(C)(C)C)=CCC23)C[C@@H](O)C[C@@H]1O (some centres unmarked) [IVa, 16-ene-24-dimethyl-25-SO2-TB1] |  |  | act to inhibit SCC-25 cells | act to inhibit normal human epidermal keratinocytes | act to inhibit MCF-7 cells |
| C[C@H](C/C=C(\F)S(=O)(=O)C(C)(C)C)C1=CC[C@H]2/C(=C/C=C3C[C@@H](O)C[C@H](O)C3)CCC[C@]12C [Ia(xi)] |  |  |  |  | act to inhibit MCF-7 cells |
| C=C1/C(=C\C=C2/CCC[C@]3(C)C([C@H](C)C/C=C(/F)S(=O)(=O)C(C)(C)C)=CC[C@@H]23)C[C@@H](O)C[C@@H]1O [Ib(v)] |  |  | act to inhibit SCC-25 cells | act to inhibit normal human epidermal keratinocytes | act to inhibit MCF-7 cells |
| C=C1/C(=C\C=C2/CCC[C@]3(C)[C@@H]([C@H](C)CCCS(=O)(=O)c4ccc(F)cc4)CC[C@@H]23)C[C@@H](O)C[C@@H]1O [Va] |  |  | act to inhibit SCC-25 cells | act to inhibit normal human epidermal keratinocytes | act to inhibit MCF-7 cells |

Reference: patent US8106035B2, “25-SO2-substituted analogs of 1μ,25-dihydroxyvitamin D3” (Cytochroma Inc., priority 2002, dated 2012)
